Consider 1 compound from ChEMBL document CHEMBL5120862, “Novel non-covalent LSD1 inhibitors endowed with anticancer effects in leukemia and solid tumor cellular models” (Eur J Med Chem, 2022).

Active and inactive are the calls of the source. The rule behind the calls is not given here.

Series [1] deals with SJRH30. Description: Antiproliferative activity against human Rh30 cells assessed as reduction in live cells at 2 uM incubated for 24 hrs by calceinAM/propidium iodide staining based fluorescence microscopy. In kind it is functional, cell-based.
The subject of series [2] is RD. Description: Induction of apoptosis in human RD cells assessed as increase in caspase 3/7 level at 2 uM incubated for 24 hrs. The format is functional, cell-based.
Another series deals with THP-1. Put plainly: Antiproliferative activity against human THP-1 cells assessed as inhibition of cell growth incubated for 72 hrs by CellTiter-Glo luminescent cell viability assay. The format is functional, cell-based. The conditions noted are these: THP-1, 72 h.
Series [3] addresses Histone-lysine N-methyltransferase EZH2 (Homo sapiens) (UniProt Q15910). Description: Inhibition of EZH2 (unknown origin) using [3H]SAM and chicken core histone as substrates at 100 uM incubated for 1 hr relative to control.
Series [4] deals with T1, MAO-A (amine oxidase [flavin-containing] A) (Homo sapiens, UniProt P21397).
T1 sequence (P21397 whole entry): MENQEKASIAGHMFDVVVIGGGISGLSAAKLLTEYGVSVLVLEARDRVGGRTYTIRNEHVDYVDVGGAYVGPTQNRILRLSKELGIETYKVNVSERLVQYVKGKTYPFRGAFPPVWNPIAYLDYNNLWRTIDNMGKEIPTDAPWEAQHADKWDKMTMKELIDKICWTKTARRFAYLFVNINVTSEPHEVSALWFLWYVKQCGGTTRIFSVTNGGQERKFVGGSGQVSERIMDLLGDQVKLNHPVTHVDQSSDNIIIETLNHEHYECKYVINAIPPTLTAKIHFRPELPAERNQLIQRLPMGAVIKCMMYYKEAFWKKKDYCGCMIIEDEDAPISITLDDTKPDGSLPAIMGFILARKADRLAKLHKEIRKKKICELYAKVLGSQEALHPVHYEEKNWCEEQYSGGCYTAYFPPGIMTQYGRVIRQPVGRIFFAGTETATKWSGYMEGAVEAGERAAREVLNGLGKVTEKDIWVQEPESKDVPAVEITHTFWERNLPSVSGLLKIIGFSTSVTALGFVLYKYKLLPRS
Description: Inhibition of human MAO-A using p-tyramine as substrate at 100 uM by fluorimetric analysis relative to control. The conditions noted are these: human MAO-A enzyme, probe p-tyramine.

For series [5], the target named is T2, Histone-lysine N-methyltransferase EHMT2 (Homo sapiens, UniProt Q96KQ7).
T2 sequence (Q96KQ7 whole entry): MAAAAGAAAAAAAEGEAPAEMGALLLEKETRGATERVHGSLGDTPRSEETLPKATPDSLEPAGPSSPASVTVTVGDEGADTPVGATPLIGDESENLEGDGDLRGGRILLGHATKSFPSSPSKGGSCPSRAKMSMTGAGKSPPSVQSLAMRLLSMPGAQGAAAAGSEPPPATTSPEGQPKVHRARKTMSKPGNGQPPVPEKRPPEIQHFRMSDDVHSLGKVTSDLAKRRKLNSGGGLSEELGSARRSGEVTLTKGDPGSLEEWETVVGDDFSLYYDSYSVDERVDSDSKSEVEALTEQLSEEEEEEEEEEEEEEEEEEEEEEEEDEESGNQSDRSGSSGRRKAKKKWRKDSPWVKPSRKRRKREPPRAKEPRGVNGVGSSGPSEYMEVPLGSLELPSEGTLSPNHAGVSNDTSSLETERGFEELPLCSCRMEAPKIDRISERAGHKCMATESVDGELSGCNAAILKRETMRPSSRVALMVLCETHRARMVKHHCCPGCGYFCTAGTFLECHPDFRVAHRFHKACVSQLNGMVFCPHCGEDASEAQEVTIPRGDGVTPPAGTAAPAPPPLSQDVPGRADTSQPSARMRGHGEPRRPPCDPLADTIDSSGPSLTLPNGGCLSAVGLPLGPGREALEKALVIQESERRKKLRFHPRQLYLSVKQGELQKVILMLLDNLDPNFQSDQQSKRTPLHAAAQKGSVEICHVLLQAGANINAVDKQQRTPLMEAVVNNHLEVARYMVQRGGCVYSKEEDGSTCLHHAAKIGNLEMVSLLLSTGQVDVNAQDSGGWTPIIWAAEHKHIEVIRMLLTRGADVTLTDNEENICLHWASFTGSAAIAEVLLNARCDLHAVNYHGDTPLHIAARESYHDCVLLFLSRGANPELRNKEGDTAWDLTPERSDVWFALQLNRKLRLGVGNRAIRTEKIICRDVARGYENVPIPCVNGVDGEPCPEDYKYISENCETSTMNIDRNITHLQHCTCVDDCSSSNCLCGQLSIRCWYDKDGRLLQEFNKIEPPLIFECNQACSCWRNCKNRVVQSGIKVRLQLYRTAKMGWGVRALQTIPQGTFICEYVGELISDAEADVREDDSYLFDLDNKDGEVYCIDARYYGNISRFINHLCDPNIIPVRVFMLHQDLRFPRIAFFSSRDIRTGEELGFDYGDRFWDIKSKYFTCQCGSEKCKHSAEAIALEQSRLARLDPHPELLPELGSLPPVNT
Put plainly: Inhibition of G9a (unknown origin) assessed as reduction in substrate methylation using histone H3 and SAM as substrate measured after 15 to 60 mins by microfluidic capillary electrophoresis analysis.

A short description of series [6]: Cytotoxicity against HMEC cells assessed as residual cell viability at 1 uM incubated for 72 hrs by MTT assay relative to control. In kind it is toxicity, cell-based. The conditions noted are these: human, read-out: Activity.
Series [7] concerns SJRH30. Put plainly: Antiproliferative activity against human Rh30 cells assessed as inhibition of cell growth incubated for 72 hrs. The conditions noted are these: SJRH30, 72 h. The format is functional, cell-based.
The subject of series [8] is SJRH30. Description: Antiproliferative activity against human Rh30 cells assessed as inhibition of cell growth incubated for 24 hrs. The conditions noted are these: SJRH30, 24 h. In kind it is functional, cell-based.
The nature of series [9]: Cytotoxicity against human derived mesenchymal stem cells assessed as residual cell viability at 1.25 uM measured after 72 hrs relative to control. The conditions noted are these: read-out: Activity. The format is toxicity, cell-based.
The target in series [10] is Histone-lysine N-methyltransferase, H3 lysine-79 specific (Homo sapiens) (UniProt Q8TEK3). Description: Inhibition of […] (unknown origin) using [3H]SAM and HeLa oligo nucleosomes as substrates at 100 uM incubated for 1 hr relative to control.
In series [11] the test system is RD. Put plainly: Antiproliferative activity against human RD cells assessed as inhibition of cell growth incubated for 144 hrs. In kind it is functional, cell-based.
The subject of another series is MDA-MB-231. Put plainly: Antiproliferative activity against human MDA-MB-231 cells assessed as inhibition of cell growth measured after 72 hrs by MTT assay. The format is functional, cell-based. The conditions noted are these: MDA-MB-231, 72 h.
For series [12], the system named is RD. Description: Antiproliferative activity against human RD cells assessed as inhibition of cell growth incubated for 24 hrs. In kind it is functional, cell-based.
The target in series [13] is Lysine-specific histone demethylase 1A (Homo sapiens) (UniProt O60341). Description: Inhibition of LSD1 in human Rh30 cells assessed as increase in H3K4me2 level at 1 uM incubated for 48 hrs by Western blot analysis. The format is cell-based.
For series [14] the target is unchanged. Put plainly: Inhibition of LSD1 in human MV4-11 cells assessed as increase in CD86 expression level incubated for 24 hrs by qRT-PCR analysis. In kind it is cell-based. The conditions noted are these: dose 0.2-1 µM.
Series [15] deals with RD. Put plainly: Antiproliferative activity against human RD cells assessed as inhibition of cell growth incubated for 72 hrs. The format is functional, cell-based.
Series [16] relates to SJRH30. Description: Induction of apoptosis in human Rh30 cells assessed as increase in caspase 3/7 level at 2 uM incubated for 24 hrs. In kind it is functional, cell-based.

Sequence of Histone-lysine N-methyltransferase EZH2 (Homo sapiens) (Q15910 whole entry, looked up): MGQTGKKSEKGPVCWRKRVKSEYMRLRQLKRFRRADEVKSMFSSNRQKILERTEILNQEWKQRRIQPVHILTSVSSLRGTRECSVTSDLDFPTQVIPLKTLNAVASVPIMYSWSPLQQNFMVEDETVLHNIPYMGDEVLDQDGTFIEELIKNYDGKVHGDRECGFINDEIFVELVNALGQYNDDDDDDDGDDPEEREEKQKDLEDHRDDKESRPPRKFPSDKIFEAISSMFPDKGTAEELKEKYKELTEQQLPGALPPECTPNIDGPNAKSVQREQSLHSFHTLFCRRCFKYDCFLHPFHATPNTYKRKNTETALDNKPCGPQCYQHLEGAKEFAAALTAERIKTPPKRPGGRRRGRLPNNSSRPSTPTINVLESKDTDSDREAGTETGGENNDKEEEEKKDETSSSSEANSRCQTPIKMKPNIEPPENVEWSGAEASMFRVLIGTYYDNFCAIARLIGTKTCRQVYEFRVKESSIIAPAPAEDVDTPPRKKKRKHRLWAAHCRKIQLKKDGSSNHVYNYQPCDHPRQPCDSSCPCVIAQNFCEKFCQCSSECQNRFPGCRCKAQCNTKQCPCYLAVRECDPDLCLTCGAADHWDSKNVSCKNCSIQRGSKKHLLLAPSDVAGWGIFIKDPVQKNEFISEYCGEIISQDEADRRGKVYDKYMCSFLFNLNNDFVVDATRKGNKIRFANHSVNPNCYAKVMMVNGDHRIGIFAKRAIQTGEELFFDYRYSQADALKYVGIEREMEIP
Sequence of Histone-lysine N-methyltransferase, H3 lysine-79 specific (Homo sapiens) (Q8TEK3 whole entry, looked up): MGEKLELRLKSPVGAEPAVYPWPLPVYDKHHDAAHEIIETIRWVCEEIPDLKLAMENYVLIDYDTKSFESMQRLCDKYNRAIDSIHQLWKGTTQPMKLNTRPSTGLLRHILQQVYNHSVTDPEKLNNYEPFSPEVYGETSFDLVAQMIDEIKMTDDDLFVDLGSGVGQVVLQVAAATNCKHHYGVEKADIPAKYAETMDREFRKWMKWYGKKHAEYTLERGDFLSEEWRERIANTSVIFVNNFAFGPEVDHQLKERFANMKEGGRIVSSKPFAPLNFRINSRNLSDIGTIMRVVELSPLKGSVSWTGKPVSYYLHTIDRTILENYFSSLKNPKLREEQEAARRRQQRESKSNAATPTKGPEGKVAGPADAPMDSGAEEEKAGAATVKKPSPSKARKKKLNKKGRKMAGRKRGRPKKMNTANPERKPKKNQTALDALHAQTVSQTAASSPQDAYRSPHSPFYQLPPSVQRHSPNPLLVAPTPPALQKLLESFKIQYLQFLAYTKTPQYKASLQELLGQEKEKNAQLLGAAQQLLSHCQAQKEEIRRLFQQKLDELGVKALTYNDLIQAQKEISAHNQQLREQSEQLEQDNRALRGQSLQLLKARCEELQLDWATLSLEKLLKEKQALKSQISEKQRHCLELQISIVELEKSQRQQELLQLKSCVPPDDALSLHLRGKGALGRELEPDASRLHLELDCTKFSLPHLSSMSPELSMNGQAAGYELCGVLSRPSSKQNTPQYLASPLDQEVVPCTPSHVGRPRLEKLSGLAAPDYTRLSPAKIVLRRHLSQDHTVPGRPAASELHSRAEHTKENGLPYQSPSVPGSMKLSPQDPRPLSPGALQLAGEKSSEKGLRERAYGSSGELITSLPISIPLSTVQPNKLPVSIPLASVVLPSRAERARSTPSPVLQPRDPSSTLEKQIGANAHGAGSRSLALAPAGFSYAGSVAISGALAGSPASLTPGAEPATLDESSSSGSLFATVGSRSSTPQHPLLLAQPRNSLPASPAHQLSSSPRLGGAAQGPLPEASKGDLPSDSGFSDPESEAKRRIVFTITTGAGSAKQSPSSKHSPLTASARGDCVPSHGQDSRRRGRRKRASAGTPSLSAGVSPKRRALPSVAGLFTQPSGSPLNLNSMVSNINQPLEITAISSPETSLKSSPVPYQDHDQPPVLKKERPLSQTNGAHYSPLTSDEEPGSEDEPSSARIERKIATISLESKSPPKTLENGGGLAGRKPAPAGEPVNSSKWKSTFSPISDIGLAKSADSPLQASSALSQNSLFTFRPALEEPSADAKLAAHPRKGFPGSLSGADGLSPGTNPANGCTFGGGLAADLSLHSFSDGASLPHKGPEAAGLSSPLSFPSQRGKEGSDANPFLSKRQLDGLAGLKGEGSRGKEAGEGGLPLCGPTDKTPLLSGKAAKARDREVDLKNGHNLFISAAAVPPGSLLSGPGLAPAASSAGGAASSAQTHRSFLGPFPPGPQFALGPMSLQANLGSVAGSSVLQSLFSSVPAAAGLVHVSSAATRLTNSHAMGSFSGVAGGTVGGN

Turning to `COc1cc2c(NC3CCN(Cc4ccccc4)CC3)nc(NCCCN(C)C)nc2cc1OCc1ccccc1`, the result in the series with SJRH30 [1], in the series on RD [2] and with SJRH30 [16] was Active. The IC50 in the series on THP-1 stood at 170 nM; in the series on SJRH30 [7], 960 nM; with SJRH30 [8] it was 1240 nM; with RD [11], 730 nM; with MDA-MB-231 it was 400 nM; in the series on RD [12] it was 1230 nM. Also, the 50% inhibitory concentration (IC50) in the series on RD [15] amounted to 850 nM. Moreover, the values for the inhibition in series [3] and in [10] were 1.8% and 22.6%, respectively. At 100 µM the inhibition in series [4] was 0.8%. For the same compound, the Ki in series [5] is 39400 nM. For the same compound, the viability at 72 h, 1 µM in series [6] worked out at 76%. In addition, the viability at 72 h, 1.25 µM in series [9] was determined as 92%. Further, the inhibition result in [13] and in series [14] was “Active” in each case.
